Reference: US8466177B2 (priority 2007, dated 2013)
Where two headings read alike, the source gives them in different places.

Legend:
A/Udorn/72, H3N2 = format: cell-based, influenza virus; details: 50 nM
A/Udorn/72 (H3N2) = assay: microbe, parasite or virus in culture; format: cell-based, influenza virus
A/PR/8/34 (H1N1) = assay: microbe, parasite or virus in culture; format: cell-based; details: Influenza A virus, MDCK
A/Aichi/68 (H3N2) = assay: microbe, parasite or virus in culture; format: cell-based; details: Influenza A virus, H3N2, MDCK
B/Lee/40 (type B) = assay: microbe, parasite or virus in culture; format: cell-based; details: Influenza B virus, MDCK
[1] = system: influenza virus (A/Udorn/72, H3N2); format: cell-based; details: 10 μM
[2] = system: recombinant influenza virus hemagglutinin (A/Wyoming/3/03); format: biochemical; details: 5 μM

Row | SMILES | virus yield, cell cultures treated after inoculation (A/Udorn/72, H3N2) | EC50 (A/Udorn/72 (H3N2)) | EC50 (A/Udorn/72 (H3N2); Influenza A virus, H3N2, MDCK) | EC50 (A/PR/8/34 (H1N1)) | EC50 (A/Aichi/68 (H3N2)) | EC50 (B/Lee/40 (type B)) | effect on membrane fusion [1] | effect on HA stability (trypsin digestion) [2]
1 | O=C1/C(=C/c2ccc(-c3ccc(F)cc3)o2)SC(=S)N1C1CCCCC1 [A1, (Z)-3-Cyclohexyl-5-{[5-(4-fluorophenyl)furan-2-yl]-methylene}-2-thioxothiazolidin-4-one] | decreased virus yield | 0.4 nM | ≤ 0.4 nM | 0.6 nM | 1 nM | 1 nM | inhibitory effects | destabilization effects
2 | Cc1ccc(-c2ccc(/C=C3\SC(=S)N(C4CCCCCCC4)C3=O)o2)cc1 [A17, (Z)-3-cyclooctyl-5-{[(4-methylphenyl)furan-2-yl]methylene}-2-thioxothiazolidin-4-one] | decreased virus yield |  |  |  |  |  |  | 
